Measured values from ChEMBL document CHEMBL1142640, “New natural product isolation and comparison of the secondary metabolite content of three distinct samples of the sea hare Aplysia dactylomela from tenerife” (J Nat Prod, 2000).
In brackets after ≈: the same amount, converted by molar mass. Activity calls are given as the source filed them. The calls are words filed in the database; no cut-off is given here.

Experiments:
Mycobacterium avium = experiment: Antitubercular activity against Mycobacterium avium; assay type: functional
ZR-75-1 = experiment: Cytotoxicity against human ZR-75-1 cells; assay type: functional, cell-based
Caenorhabditis elegans = experiment: Nematicidal activity against Caenorhabditis elegans; assay type: functional, organism-based
Escherichia coli = experiment: Antibacterial activity against Escherichia coli at 50 ug/disk; assay type: functional
[1] = target: Tyrosine-protein kinase Lck (Homo sapiens) (UniProt P06239); experiment: Inhibition of p56lck
Tyrosine-protein kinase Lck (Homo sapiens), sequence (P06239 2-509 limits assumed): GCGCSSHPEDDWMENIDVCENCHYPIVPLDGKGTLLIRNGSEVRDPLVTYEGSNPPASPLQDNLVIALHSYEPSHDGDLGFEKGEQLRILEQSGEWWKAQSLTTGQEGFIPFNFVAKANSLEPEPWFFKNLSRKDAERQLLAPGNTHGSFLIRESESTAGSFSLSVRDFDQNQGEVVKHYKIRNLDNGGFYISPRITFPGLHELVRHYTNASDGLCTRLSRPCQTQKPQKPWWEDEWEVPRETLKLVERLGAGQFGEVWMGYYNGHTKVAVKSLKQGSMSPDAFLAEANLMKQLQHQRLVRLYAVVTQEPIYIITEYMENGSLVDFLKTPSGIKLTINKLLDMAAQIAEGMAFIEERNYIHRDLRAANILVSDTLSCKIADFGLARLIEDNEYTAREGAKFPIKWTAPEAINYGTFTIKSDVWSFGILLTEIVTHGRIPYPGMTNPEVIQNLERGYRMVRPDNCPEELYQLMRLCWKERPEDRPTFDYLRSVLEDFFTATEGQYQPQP

[Chlorella] fusca [2] = Antialgal activity against Chlorella fusca; assay type: functional, Scenedesmus fuscus
Priestia megaterium = experiment: Antibacterial activity against Bacillus megaterium at 50 ug/disk; assay type: functional
[3] = Toxicity in Artemia salina at 0.5 mg/mL after 48 hrs; assay type: organism-based; settings: in vivo, read-out: Activity
[Chlorella] fusca [4] = Antialgal activity against Chlorella fusca assessed as no colonies of test organism growing within inhibition zone at 50 ug/disk; assay type: functional; settings: Scenedesmus fuscus; read-out: IZ
[5] = target: Human immunodeficiency virus type 1 reverse transcriptase (Human immunodeficiency virus 1) (UniProt Q72547); experiment: Inhibition of HIV1 reverse transcriptase
Lu1 = experiment: Cytotoxicity against human Lu1 cells; assay type: functional, cell-based
KB = experiment: Cytotoxicity against human KB cells; assay type: functional, cell-based
Microbotryum violaceum = experiment: Antifungal activity against Microbotryum violaceae assessed as no colonies of test organism growing within inhibition zone at 50 ug/disk; assay type: functional; settings: read-out: IZ
[6] = tested on: Mycobacterium tuberculosis; experiment: Antitubercular activity against Mycobacterium tuberculosis; assay type: functional

With `C[C@]1(/C=C/Cl)C[C@](Cl)(CBr)[C@@H](Br)C[C@H]1Cl` the MIC (Mycobacterium avium) was 34 µg/mL (≈ 85.1 µM), the IC50 (ZR-75-1) was 7.8 µg/mL (≈ 19.5 µM) and the Activity (Caenorhabditis elegans) was “Active”. For the same molecule, the Activity (Escherichia coli) was “inactive”, the Activity [1] was “inactive” and the MIC ([Chlorella] fusca [2]) was 7 µg. For the same molecule, the Activity (Priestia megaterium) was “inactive”, the mortality at 48 h, 0.5 mg/mL [3] was 100% and the zone of inhibition at 50 µg/disc ([Chlorella] fusca [4]) was 16 mm. The Activity [5] was “inactive”, the IC50 (Lu1) was 12.9 µg/mL (≈ 32.3 µM) and the IC50 (KB) was 13.3 µg/mL (≈ 33.3 µM). It also gave a zone of inhibition at 50 µg/disc (Microbotryum violaceum) of 2 mm and an MIC [6] of 32 µg/mL (≈ 80.1 µM).
